# From patent US10300070B2, “Metabolically-activated drug conjugates to overcome resistance in cancer therapy” (The Brigham and Women's Hospital, Inc., priority 2014, dated 2019)
# How the values were obtained:
# MDA-MB-231 parent or DTC = experiment: Glucose uptake (2-NBDG) determined by FACS; format: cell-based; conditions: sub-lethal docetaxel (25 nM), MDA-MB-231
# Procedure: MDA-MB-231 (ATCC), MDA-MB-468 and 4T-1 mammary carcinoma cells (ATCC) were cultured in DMEM containing 10% Fetal Bovine Serum (FBS) at 37 C and 5% CO2. DU145 and DU145-TxR were provided by A. Mizokami^63 and cultured in DMEM containing 10% FBS, resistant line included 100 nM paclitaxel in the culture media. During treatments with chemotherapeutics, cells were grown to semi-confluence and treated with indicated concentrations of chemotherapy in serum-containing medium for indicated time points. When small molecule inhibitors were included in treatments, they were added simultaneously with chemotherapy. For siRNA gene knockdown, cells were transfected with silencer-select siRNA plasmids (Ambion, Invitrogen, Grand Island, N.Y.) pan-CD44(1) (s2682) panCD44(2) (s2681), siHIF1A (s6539) using lipofectamine 2000 (Invitrogen, Carlsbad Calif.) following manufacturer protocol and cultured for 72 hours prior to treatment. Scrambled siRNA was used as a control. For chemotherapy treatment experiments: Cancer cells were plated at a density of 0.5-1×10^5 cells/ml and allowed to adhere for 24-48 hr. When cells reached ˜70% confluency they were treated with cytotoxics at indicated concentrations for 24-48 hours and utilized for subsequent assays. For experiments in which a shorter incubation was used (i.e. 15 min-4 hours) fresh media was added 24 hours prior to addition of chemotherapy suspended to stock concentration in PBS. For generation of DTC: Cells were treated for 48 hours with chemotherapy. Following washes with PBS, adherent cells were trypsinized and re-plated at a density of 1.5-2×10^5 cells/ml and cultured in serum-containing medium. After 24 hours incubation, floating cells were removed and remaining cells were washed with 1× PBS and considered as chemotherapy-tolerant cells. A population of drug naïve parent cells were always cultured alongside DTC and fresh media was added at every interval that experimental population (DTC) received fresh media.
# In vitro detection of glucose uptake was performed using 2-(N-7-Nitrobenz-2-oxa-1,3-diazol-4-yl)Amino)-2-Deoxyglucose (2-NBDG) (Invitrogen, Carlsbad Calif.), dissolved in DMSO to 50 mM. Cells were pre-treated with kinase inhibitors or vehicle for 3 hours in glucose- and phenol red-free media before addition of 50 μM 2-NBDG and subsequently read by FACS ex/em 488/535 nm. ROS was determined by pre-loading cells with CM-DCFDA (1 μM), washed 2 times with PBS and subsequently treated with H2O2 or vehicle; when kinase inhibitors were included in treatment, cells were first incubated with inhibitor for 3 hours prior to CM-DCFDA loading. Fluorescence was then determined by FACS ex/em 488/535 nm. For the following assays, cells were trypsinized and counted by Nexcelom cell counter (Lawrence, Mass.) prior to being subjected to analysis in order to achieve a quantitative value per cell: Reduced glutathione was determined using a colorimetric glutathione recycling system by DTNB following manufacturer protocol (Biovision, Milpitas Calif.). ATP analysis was performed using the ATP colorimetric analysis kit (Biovision) according to manufacturer protocol. Reductive stress was detected using the Enzo nitroreductase hypoxia kit (Enzo Life Sciences, Ann Arbor Mich.) following manufacturer protocol and visualized by fluorescent microscopy; a set of non-docetaxel-treated control cells loaded with fluorescent probe were compared against docetaxel-treated cells to derive a % redox stress increase which was calculated as fluorescence intensity of nitroreductase probe per cell and expressed as increase from vehicle. Protein synthesis was measured by two means 1. L-azidohomoalanine amino acid analog of methionine containing an azide moiety was added to cultured cells (parent or DTC) for 3 hours which is incorporated into proteins during active protein synthesis. […]
# CD44v6 and EGFR = experiment: CD44/CD44v6-EGFR immunocomplex by immunoprecipitation and western blot; format: cell-based; conditions: MDA-MB-231 cells; docetaxel sublethal dose (10 nM), with or without erlotinib
# Procedure: Laemli sample buffer was prepared as a 5× solution containing □-mercaptoethanol as a reducing agent. Immunoprecipitaion was performed using both classic and direct IP kits purchased from Pierce following manufacturer protocols (Thermo Fisher inc. Rockford, Ill.). Briefly, cell lysates were prepared using IP/Lysis Buffer (Thermo Fisher inc. Rockford, Ill.) in the presence of 2× HALT protease/phosphatase inhibitor cocktail (Thermo Fisher inc. Rockford, Ill.). […] Direct immunoprecipitation was performed following manufacturer protocol. […] Protein samples were resolved by SDS-PAGE and transferred to PVDF membranes prior to incubation at 4 C with indicated primary antibodies; NHE-1, GLUT-1 and cytoplasmic domain-targeting EGFR were purchased from Santa Cruz Biotech (Santa Cruz, Calif.). p70S6K and pp70S6K, mTOR and pMTOR, pERM and ERM, Ezrin and pEzrin, pAKT and AKT, pPRAS40 and PRAS40, EGFR and pEGFR antibodies cleaved caspase-3 and β-Actin were purchased from cell signaling technology (Cambridge, Mass.). EGFR and CD44v6 neutralizing antibodies were purchased from R&D (Minneapolis, Minn.). […] Optical densities of western blots were measured using ImageJ open source software (National Institutes of Health) and validated using Adobe CS5.
# CD44 = experiment: Cell surface CD44 expression by FACS; format: cell-based; conditions: sub-lethal docetaxel (25 nM), MDA-MB-231
# Procedure: DU145 and DU145-TxR were provided by A. Mizokami^63 and cultured in DMEM containing 10% FBS, resistant line included 100 nM paclitaxel in the culture media. During treatments with chemotherapeutics, cells were grown to semi-confluence and treated with indicated concentrations of chemotherapy in serum-containing medium for indicated time points. When small molecule inhibitors were included in treatments, they were added simultaneously with chemotherapy. […] Scrambled siRNA was used as a control. For chemotherapy treatment experiments: Cancer cells were plated at a density of 0.5-1×10^5 cells/ml and allowed to adhere for 24-48 hr. […] Following washes with PBS, adherent cells were trypsinized and re-plated at a density of 1.5-2×10^5 cells/ml and cultured in serum-containing medium. […] A population of drug naïve parent cells were always cultured alongside DTC and fresh media was added at every interval that experimental population (DTC) received fresh media.
# Cells were cultured as indicated, removed from culture dishes with accutase stem-pro dissociation reagent (Invitrogen, Carlsbad Calif.) and fixed with 4% paraformaldehyde in PBS for 30 min at RT, washed twice with PBS and blocked in 10% goat serum (v/v). Whenever necessary, cells were permeabilized with 0.05% saponin in PBS. Cells were incubated with CD44-APC (BD biosciences, San Jose, Calif.) overnight at 4 C and analyzed by FACS (C6 Accuri cyomteters Inc Ann Arbor, Mich.), data analysis using FlowJo software (Tree Star Inc., Ashland Oreg.) and Accuri cFlow plus software to obtain and confirm mean fluorescent intensity (GNU.org).
# tumor tissue = experiment: Whole tissue glucose levels from tumor homogenate after intratumoral injection; format: in vivo, mice; conditions: docetaxel intratumoral injection, within 12 hours post-administration
# Procedure: 1 million 4T-1 mouse mammary carcinoma cells suspended in 100 μL PBS were injected per left flank of 5-6 week old Balb/C (heterotopic) or mammary fat pad (orthotopic). Docetaxel (DTX) was dissolved in pure Ethanol at a concentration of 50 mg/ml mixed 1:1 with Polysorbate 80 (Tween 80) and brought to a final working concentration with PBS. Tumor volumes were assessed by the following formula: (Width×Width×length)/2 and values were utilized to calculate tumor specific growth rate (SGR) by the algorhythm (ln [V2/V1]/[t2−t1)] where V=volume and t=time in days^64. For in vivo analysis of 2-NBDG uptake, mice were treated as indicated (i.e. Docetaxel intratumoral or intravenously) and monitored until tumors reached ˜300 mm^3. Subsequently, mice were administered a 10 mg/kg i.v. injection of 2-NBDG 2 hours prior to sacrificing and harvesting tumors for confocal microscopic analysis by frozen section (described below). […] Glucose quantitation (mg/dL) was measured using the onetouch lifescan glucose monitor (Life Scan, Inc. Militipas, Calif.) by calculating mg of glucose per volume of tissue homogenate (in PBS) and normalized as a ratio of mg/dL of glucose to mg of tissue homogenized. Typically, >250 mg of tissue was homogenized in 50 μL of PBS to achieve a readable output.
smiles,measurement,setting,value
CC(=O)O[C@@]12CO[C@@H]1C[C@H](O)[C@@]1(C)C(=O)[C@H](O)C3=C(C)[C@@H](OC(=O)[C@H](O)[C@@H](NC(=O)OC(C)(C)C)c4ccccc4)C[C@@](O)([C@@H](OC(=O)c4ccccc4)[C@H]21)C3(C)C [docetaxel],time point at which augmented glucose uptake was observed,MDA-MB-231 parent or DTC,24 h
same,immunocomplex between CD44v6 and EGFR,CD44v6 and EGFR,induced
same,time to induction of cell surface CD44,CD44,≤ 4 h
same,whole tissue glucose levels in tumor,tumor tissue,significantly higher
